For ten molecules, IC50 results are on record in patent publication US20240352016A1, “A CYCLIN-DEPENDENT KINASE INHIBITOR” (TAIZHOU EOC PHARMA CO., LTD., priority 2021, published 2024).

One test deals with OVCAR3. Nature of the test: Inhibition of cell proliferation (CyQuant), OVCAR3. The format is cell-based. To be noted: Homo sapiens, OVCAR-3; OVCAR3 ovarian cancer cell line, 120 hour, CyQuant assay kit. The procedure: (§1) Exemplary compounds of the invention were tested at different concentrations (from 10 μM to 610 pM; 4-fold serial dilutions) for their ability to inhibit the proliferation of various cancer cell lines. Known kinase inhibitor staurosporine were used as positive controls. Cells were grown in the indicated media listed below. All cell lines were supplemented with FBS (Life Technologies) and 100 U-mL^−1 penicillin, 100 μg·mL^−1 streptomycin (Invitrogen) and cultured at 37° C. in a humidified chamber in the presence of 5% CO2. Proliferation assays were conducted over a 120 hour time period. CyQuant assay kit (ThermoFisher) was used to assess the anti-proliferative effects of the compounds following manufacturer's directions.
(§2) The following cancer cell lines may be tested with the exemplary media conditions indicated:
• OVCAR3: RPMI 1640+0.01 mg/mi bovine insulin+20% FBS+1% Glutamax
(§3) Exemplary results of these assays are set forth in Tables 3, where “A” represents an IC50 value of less than 0.2 μM; “B” represents an IC50 value of between 0.2 μM and 5 μM, inclusive; and “C” represents an IC50 value of greater than 5 μM. “NT” represents that the specified compound was not tested in the specified assay.

The subject of the next test is HCC70. Nature of the test: Inhibition of cell proliferation (CyQuant), HCC70. To be noted: Homo sapiens; HCC70 breast cancer cell line, 120 hour, CyQuant assay kit. The format is cell-based. The method, then:
as §1, §2, §3

The target in a further test is T1, CDK7/Cyclin H/MAT1 (Homo sapiens, UniProt P50613).
T1 construct: made in house; host or cells: insect cell
T1 sequence (P50613 whole entry): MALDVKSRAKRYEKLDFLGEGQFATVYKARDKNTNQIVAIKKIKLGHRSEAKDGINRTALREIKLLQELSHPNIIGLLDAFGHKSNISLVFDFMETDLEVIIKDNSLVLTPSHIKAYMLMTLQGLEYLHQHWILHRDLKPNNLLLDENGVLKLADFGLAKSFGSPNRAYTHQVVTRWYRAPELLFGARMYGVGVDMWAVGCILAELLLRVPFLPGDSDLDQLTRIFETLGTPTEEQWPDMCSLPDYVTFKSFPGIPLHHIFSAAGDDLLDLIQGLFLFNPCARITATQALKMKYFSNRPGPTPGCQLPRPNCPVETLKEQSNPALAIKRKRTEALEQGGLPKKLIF
T1 sequence (P51946 whole entry partner): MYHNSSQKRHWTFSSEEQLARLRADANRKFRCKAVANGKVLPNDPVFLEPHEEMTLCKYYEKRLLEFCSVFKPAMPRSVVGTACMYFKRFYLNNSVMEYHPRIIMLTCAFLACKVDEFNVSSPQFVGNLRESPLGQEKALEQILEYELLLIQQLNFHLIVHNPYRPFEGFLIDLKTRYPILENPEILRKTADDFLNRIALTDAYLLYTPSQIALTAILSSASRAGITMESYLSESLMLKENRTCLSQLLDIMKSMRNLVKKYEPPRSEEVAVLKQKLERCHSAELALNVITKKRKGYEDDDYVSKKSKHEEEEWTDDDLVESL
T1 sequence (P51948 whole entry partner): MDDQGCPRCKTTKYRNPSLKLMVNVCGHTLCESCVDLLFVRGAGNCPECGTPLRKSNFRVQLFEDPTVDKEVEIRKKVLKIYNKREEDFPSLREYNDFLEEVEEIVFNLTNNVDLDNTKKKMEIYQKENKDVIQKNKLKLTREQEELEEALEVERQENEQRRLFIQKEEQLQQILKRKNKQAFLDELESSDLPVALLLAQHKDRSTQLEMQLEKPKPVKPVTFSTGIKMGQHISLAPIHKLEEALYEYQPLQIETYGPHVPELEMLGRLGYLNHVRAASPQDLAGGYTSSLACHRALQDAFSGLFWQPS
Briefly: CDK kinase activity mobility shift assay (MSA). The class given is biochemical. To be noted: The CDK may be CDK7; mobility shift assay, 2 mM ATP, 3 nM CDK/Cyclin, 27° C. for 40 min; read-out: IC50 (CDK inhibition). The method, then: Human CDKs, cyclins and other partner proteins were expressed in insect cell, purified individually, reconstituted and then purified to homogeneity before being used for kinase activity assay.
Kinase activity of CDKs were determined by mobility shift assay (MSA), in which the formation of a phosphorylated fluorescence-labelled peptide in reaction mixture was monitored through capillary electrophoresis in a microfluidic environment. […] The mixtures were incubated at 27° C. for 40 min before being quenched with 4 μl 80 mM EDTA, then read on a LabChip EZ Reader II (Caliper Life Science). IC50 of compound for CDKs was calculated by Prism (GraphPad) using a four-parameter nonlinear curve fit.

Where a name gives a salt, the structure may show the parent alone. Where only a bound is given, the exact number is not on record here.

As a reminder, the IC50 is the point on the concentration scale where inhibition reaches its midpoint. As to `CC(C)n1cnc2c(NCc3ccccc3-c3cnn(C)c3)nc(N3CCC(N)CC3)nc21` [Compound I-8, 2-(4-aminopiperidin-1-yl)-9-isopropyl-N-(2-(1-methyl-1H-pyrazol-4-yl)benzyl)-9H-purin-6-amine], the values for the half-inhibitory concentration (IC50) in the test on OVCAR3, with HCC70 and at CDK7/Cyclin H/MAT1 were below 200 nM, 200 to 5000 nM and below 100 nM, respectively.

For the molecule `CCn1cnc2c(NCc3ccccc3-n3cccn3)nc(N3CCC(N)CC3)nc21` [Compound I-7, N-(2-(1H-pyrazol-1-yl)benzyl)-2-(4-aminopiperidin-1-yl)-9-ethyl-9H-purin-6-amine hydrochloride], the IC50 with OVCAR3 was 200 to 5000 nM; in the test on HCC70, 200 to 5000 nM; at CDK7/Cyclin H/MAT1 it was below 100 nM.

Consider `CC(C)n1cnc2c(NCc3ccccc3-c3ccnn3C)nc(N3CCC(N)CC3)nc21` [Compound I-12, 2-(4-aminopiperidin-1-yl)-9-isopropyl-N-(2-(1-methyl-1H-pyrazol-5-yl)benzyl)-9H-purin-6-amine], for which the IC50 with OVCAR3 is below 200 nM; in the test on HCC70 it was below 200 nM; at CDK7/Cyclin H/MAT1, below 100 nM.

Regarding `CNC1CCN(c2nc(NCc3ccccc3-n3cccn3)c3ncn(C(C)C)c3n2)CC1` [Compound I-19, N-(2-(1H-pyrazol-1-yl)benzyl)-9-isopropyl-2-(4-(methylamino)piperidin-1-yl)-9H-purin-6-amine], the IC50 in the test with OVCAR3 is below 200 nM; in the test on HCC70 it was below 200 nM; at CDK7/Cyclin H/MAT1, below 100 nM.

With `CC(C)n1cnc2c(NCc3ccccc3-n3ccc(C(C)(C)O)n3)nc(N3CCC(N)CC3)nc21` [Compound I-16, 2-(1-(2-(((2-(4-aminopiperidin-1-yl)-9-isopropyl-9H-purin-6-yl)amino)methyl)phenyl)-1H-pyrazol-3-yl)propan-2-ol], the half-maximal inhibitory concentration (IC50) is below 200 nM in the test with OVCAR3, below 200 nM in the test on HCC70 and below 100 nM on CDK7/Cyclin H/MAT1.

On to `CC(C)n1cnc2c(NCc3ccccc3-n3cccn3)nc(N3CCC[C@H](N)C3)nc21` [Compound I-10, (S)—N-(2-(1H-pyrazol-1-yl)benzyl)-2-(3-aminopiperidin-1-yl)-9-isopropyl-9H-purin-6-amine], for which the values for the IC50 in the test with OVCAR3, in the test on HCC70 and on CDK7/Cyclin H/MAT1 were 200 to 5000 nM, 200 to 5000 nM and below 100 nM, respectively.

`CC(C)n1cnc2c(NCc3ccccc3-n3ccc(C(=O)N4CCN(C)CC4)n3)nc(N3CCC(N)CC3)nc21` [Compound I-3, (1-(2-(((2-(4-aminopiperidin-1-yl)-9-isopropyl-9H-purin-6-yl)amino)methyl)phenyl)-1H-pyrazol-3-yl)(4-methylpiperazin-1-yl)methanone]: the figures for the 50% inhibitory concentration (IC50) with OVCAR3, in the test with HCC70 and on CDK7/Cyclin H/MAT1 were 200 to 5000 nM, 200 to 5000 nM and below 100 nM, respectively.

As for `CC(C)n1nccc1-c1ncccc1CNc1nc(N2CCC(N)CC2)nc2c1ncn2C(C)C` [Compound I-6, 2-(4-aminopiperidin-1-yl)-9-isopropyl-N-((2-(1-isopropyl-1H-pyrazol-5-yl)pyridin-3-yl)methyl)-9H-purin-6-amine], the concentration for half-maximal inhibition (IC50) in the test with OVCAR3 was below 200 nM; in the test on HCC70 it was below 200 nM; at CDK7/Cyclin H/MAT1, below 100 nM.

With `CC(C)n1cnc2c(NCc3ccccc3-n3ccc(C(=O)N4CCN(CCO)CC4)n3)nc(N3CCC(N)CC3)nc21` [Compound I-2, (1-(2-(((2-(4-aminopiperidin-1-yl)-9-isopropyl-9H-purin-6-yl)amino)methyl)phenyl)-1H-pyrazol-3-yl)(4-(2-hydroxyethyl)piperazin-1-yl)methanone], the 50% inhibitory concentration (IC50) was 200 to 5000 nM in the test with OVCAR3, 200 to 5000 nM in the test on HCC70 and below 100 nM on CDK7/Cyclin H/MAT1.

`CC(C)N1CCN(c2ccn(-c3ccccc3CNc3nc(N4CCC(N)CC4)nc4c3ncn4C(C)C)n2)CC1` [Compound I-4, 2-(4-aminopiperidin-1-yl)-9-isopropyl-N-(2-(3-(4-isopropylpiperazin-1-yl)-1H-pyrazol-1-yl)benzyl)-9H-purin-6-amine hydrochloride]: the values for the half-inhibitory concentration (IC50) with OVCAR3, with HCC70 and at CDK7/Cyclin H/MAT1 were below 200 nM, below 200 nM and below 100 nM, respectively.
